Assay results as given in patent publication US20240065994A1, “COMPOSITIONS AND METHODS FOR PREVENTING OR TREATING DISEASES OR DISORDERS ASSOCIATED WITH PROTEIN MISFOLDING” (priority 2020, published 2024).

Tests used:
Wild-type and Akita mice [1] = experiment: Insulin tolerance test (ITT); type: in vivo; details: 15 mM BSO, third week, 1 U/Kg insulin i.p., 6 h fast
Excerpt: (§1) Animals: C57BL/6-Ins2^Akita/J (Akita) are an excellent model for Mutant-insulin Diabetes of Youth. Akita mice suffer from diabetes due to misfolded proinsulin, as the gene that codes for proinsulin (Ins2) is mutated. […] One male Akita mice was bred to female mice and the progeny were back-crossed to obtain enough number of heterozygous and wild-type male mice. The genotype of the mice was confirmed by using methods described previously. Briefly, the polymerase chain reaction product of the amplicons from the mutated region of the Ins 2 gene were subjected to restriction enzyme digestion and the products of the digestion were separated in agarose gels. Based on the number of fragments that resulted from the digestion, the genotypes of mice were confirmed. Only heterozygous male mice were used in the experiments. After two rounds of breeding, 12 heterozygous Akita and 12 wild-type Akita mice. […] Body weight (see FIG. 1) and food consumption (see FIG. 2) was monitored weekly. […] Mice were intraperitoneally injected with 1 U/Kg body weight of insulin and blood glucose was determined at specified intervals. […] Blood glucose was measured from tail clips using AlphaTrak-2 (Parsipanny, NJ,) glucometer and compatible strips. Blood glucose was measured at 0, 5, 15, 30, 60, 90, 120, 150, 180, and 210 min after injection. […]

Akita mice = experiment: Effect of BSO on fasting glucose; type: in vivo; details: 15 mM BSO in drinking water, measured before and 1, 3, 4, 7, 8 weeks after, persisted throughout the study
Excerpt: Experimentation was done with Akita mice, which harbor a similar mutation in the proinsulin gene as human patients with MIDY, are used as a laboratory model for MIDY. […] The Akita strain is a monogenic model for phenotypes associated with type 1 diabetes. A spontaneous mutation in the insulin 2 gene leads to incorrect folding of the proinsulin protein producing toxicity in pancreatic beta-cells, reduced beta-cell mass and reduced insulin secretion. As a result, Akita mice suffer with glucose levels that are two to four-fold higher than healthy mice. […] Animals: C57BL/6-Ins2^Akita/J (Akita) are an excellent model for Mutant-insulin Diabetes of Youth. Akita mice suffer from diabetes due to misfolded proinsulin, as the gene that codes for proinsulin (Ins2) is mutated. […] One male Akita mice was bred to female mice and the progeny were back-crossed to obtain enough number of heterozygous and wild-type male mice. The genotype of the mice was confirmed by using methods described previously. […] Fasting glucose was determined using AlphaTrak-2 glucometer. […] Fasting (6 hr) blood glucose was determined from tail clips before starting the mice on BSO and 1, 3, 4, 7, and 8 weeks after treating with BSO. […]

[2] = Effect of BSO on food intake; type: in vivo, mice; details: 15 mM BSO in drinking water for eight weeks, measured weekly
Excerpt: (§2) Animals: C57BL/6-Ins2^Akita/J (Akita) are an excellent model for Mutant-insulin Diabetes of Youth. Akita mice suffer from diabetes due to misfolded proinsulin, as the gene that codes for proinsulin (Ins2) is mutated. […] One male Akita mice was bred to female mice and the progeny were back-crossed to obtain enough number of heterozygous and wild-type male mice. The genotype of the mice was confirmed by using methods described previously. Briefly, the polymerase chain reaction product of the amplicons from the mutated region of the Ins 2 gene were subjected to restriction enzyme digestion and the products of the digestion were separated in agarose gels. Based on the number of fragments that resulted from the digestion, the genotypes of mice were confirmed. Only heterozygous male mice were used in the experiments. After two rounds of breeding, 12 heterozygous Akita and 12 wild-type Akita mice. After reaching 15-weeks of age, mice in each genotype were randomized into two groups of 6 animals each (n=6/group). All mice were given either 0 mM or 15 mM of D,L-Buthionine-(S,R)-sulfoximine (BSO, Toronto Research Chemicals Inc., ON, CA) administered in drinking water. […]
Experiment 2. […] Food intake was measured every week.
(§3) Body weight (see FIG. 1) and food consumption (see FIG. 2) was monitored weekly. […]

[3] = Effect of BSO on body weight; type: in vivo, mice; details: 15 mM BSO in drinking water for eight weeks, weighed weekly
Excerpt: as §2
Experiment 1. […] Body weight was monitored every week.
as §3

Wild-type and Akita mice [4] = experiment: Glucose tolerance test (GTT); type: in vivo; details: 15 mM BSO, fifth week, 0.85 g/Kg D-glucose i.p., 6 h fast
Excerpt: as §1, with “0.85 g/Kg” for “1 U/Kg”, “D-glucose” for “of insulin”

glutathione = experiment: Effect of BSO on blood glutathione concentration; type: in vivo, mice; details: after eight weeks on 15 mM BSO
Excerpt: Animals: C57BL/6-Ins2^Akita/J (Akita) are an excellent model for Mutant-insulin Diabetes of Youth. Akita mice suffer from diabetes due to misfolded proinsulin, as the gene that codes for proinsulin (Ins2) is mutated. […] One male Akita mice was bred to female mice and the progeny were back-crossed to obtain enough number of heterozygous and wild-type male mice. The genotype of the mice was confirmed by using methods described previously. Briefly, the polymerase chain reaction product of the amplicons from the mutated region of the Ins 2 gene were subjected to restriction enzyme digestion and the products of the digestion were separated in agarose gels. Based on the number of fragments that resulted from the digestion, the genotypes of mice were confirmed. Only heterozygous male mice were used in the experiments. After two rounds of breeding, 12 heterozygous Akita and 12 wild-type Akita mice. After reaching 15-weeks of age, mice in each genotype were randomized into two groups of 6 animals each (n=6/group). […] Glutathione was determined as described in experimental methods section. […] Glutathione was determined by a colorimetric method based on an enzymatic recycling method using 5,5′-dithiobis-(2-nitrobenzoic acid) as described earlier (Teitze et al). Using a standard curve with known concentrations the glutathione concentrations were determined and expressed as μg/mL blood.

## CCCCS(=N)(=O)CC[C@H](N)C(=O)O (mixture of isomers) [BSO, D,L-Buthionine-(S,R)-sulfoximine]
Wild-type and Akita mice [1]; Akita mice
  effect on insulin tolerance area under the curve: No effect
Wild-type and Akita mice [1]; wild-type mice
  effect on insulin tolerance area under the curve: No effect
Akita mice
  effect on fasting (6 hr) blood glucose: Decrease in glucose levels in Akita was evident within one week
[2]; Akita mice
  effect on food intake: does not affect
[2]; wild-type mice
  effect on food intake: does not affect
[3]; Akita mice
  effect on body weight: lack of the effect
[3]; wild-type mice
  effect on body weight: lack of the effect
Wild-type and Akita mice [4]; Akita mice, baseline subtracted
  glucose tolerance area under the curve decreased to: less than 50%
Wild-type and Akita mice [4]; wild-type mice
  effect on glucose tolerance area under the curve: did affect
glutathione; Akita mice
  effect on blood glutathione concentration: decreased
glutathione; wild-type mice
  effect on blood glutathione concentration: decreased
